Experimental data taken from ChEMBL document CHEMBL5338712, “Influence of chain length on the anticancer activity of the antimicrobial peptide CAMEL with fatty acid modification” (Eur J Med Chem, 2022).
Values after ≈ are worked out from the molar mass of the structure shown. Active and inactive are the calls of the source. The calls are words filed in the database; no cut-off is given here. Where a SMILES comes first, the peptide text is derived from it. The star is where a group is joined. Decanoyl = CCCCCCCCCC(=O)*; Cbz = O=C(OCc1ccccc1)*; Butyryl = CCCC(=O)*; CH2F = FC*

Columns and labels:
[1] = system: B16-F10; experiment: Cytotoxicity against mouse B16-F10 cells assessed as reduction in cell viability measured after 1 hrs by MTT assay; assay type: functional, cell-based; settings: dose 1.25-20 µM
[2] = system: B16-F10; experiment: Cytotoxicity against mouse B16-F10 cells assessed as reduction in cell viability at 1.25 to 20 uM measured after 24 hrs by MTT assay; assay type: functional, cell-based; settings: dose 1.25-20 µM
[3] = system: Escherichia coli; experiment: Antibacterial activity against Escherichia coli ATCC 25922 assessed as reduction in bacterial growth measured for 18 hrs by serial dilution method; assay type: functional
[4] = system: Staphylococcus aureus; experiment: Antibacterial activity against Staphylococcus aureus ATCC […] assessed as reduction in bacterial growth measured for 18 hrs by serial dilution method; assay type: functional
[5] = target: trypsin (Homo sapiens, UniProt P07477+P07478+P35030); experiment: Stability of compound assessed as trypsin (unknown origin)-mediated compound degradation measured upto 6 hrs by RP-HPLC analysis; assay type: ADME, protein assay; settings: trypsin (enzyme solution), read-out: Drug degradation
[6] = system: B16-F10; experiment: Membrano-lytic activity in mouse B16-F10 cell membrane measured after 1 hr by LDH leakage assay; assay type: cell-based; settings: dose 1.25-20 µM
[7] = system: B16-F10; experiment: Membrano-lytic activity in mouse B16-F10 cell membrane at 1.25 to 20 uM measured after 1 hr by LDH leakage assay; assay type: cell-based; settings: dose 1.25-20 µM
[8] = system: B16-F10; experiment: Cytotoxicity against mouse B16-F10 cells assessed as induction of cell death measured for 4 to 24 hrs by MTT assay; assay type: functional, cell-based; settings: time 4-24 hrs
[9] = Self-assembly behavior of compound in saline solution assessed as critical micelle concentration by spectrophotometer analysis; assay type: physicochemical; settings: buffer

Q: Which results are given for `CCCC(=O)N[C@@H](CCCCN)C(=O)N[C@@H](Cc1c[nH]c2ccccc12)C(=O)N[C@@H](CCCCN)C(=O)N[C@@H](CC(C)C)C(=O)N[C@@H](Cc1ccccc1)C(=O)N[C@@H](CCCCN)C(=O)N[C@@H](CCCCN)C(=O)N[C@H](C(=O)NCC(=O)N[C@@H](C)C(=O)N[C@H](C(=O)N[C@@H](CC(C)C)C(=O)N[C@@H](CCCCN)C(=O)N[C@H](C(=O)N[C@@H](CC(C)C)C(N)=O)C(C)C)C(C)C)[C@@H](C)CC` (Butyryl-KWKLFKKIGAVLKVL-NH2)?
A: Activity [1]: Dose-Dependent Effect; Activity [2]: Active; MIC [3]: 4 µM (≈ 7.36 µg/mL); MIC [4]: 2 µM (≈ 3.68 µg/mL); metabolised at 6 h [5]: 100%; Activity [6]: Dose-Dependent Effect; Activity [7]: Active

Q: Which Activity [8] does the source give for `COC(=O)C[C@H](NC(=O)[C@H](C)NC(=O)[C@@H](NC(=O)OCc1ccccc1)C(C)C)C(=O)CF` (Cbz-Val-Ala-Asp(OMe)-CH2F) here?
A: Active

Q: For `CCCCCCCCCC(=O)N[C@@H](CCCCN)C(=O)N[C@@H](Cc1c[nH]c2ccccc12)C(=O)N[C@@H](CCCCN)C(=O)N[C@@H](CC(C)C)C(=O)N[C@@H](Cc1ccccc1)C(=O)N[C@@H](CCCCN)C(=O)N[C@@H](CCCCN)C(=O)N[C@H](C(=O)NCC(=O)N[C@@H](C)C(=O)N[C@H](C(=O)N[C@@H](CC(C)C)C(=O)N[C@@H](CCCCN)C(=O)N[C@H](C(=O)N[C@@H](CC(C)C)C(N)=O)C(C)C)C(C)C)[C@@H](C)CC` (Decanoyl-KWKLFKKIGAVLKVL-NH2), which CMC [9] is on record?
A: 32.61 µM
